Laboratory results as given in ChEMBL document CHEMBL1201862, “PubChem BioAssay data set” (2004).
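Each compound was tested at five concentrations against cells in 96-well plates for 48 hours. GI50 = concentration required for 50% inhibition of growth.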 Active and inactive are the calls of the source. Cut-off read from the data, not from the text of the source: active = GI50 up to about 1.1 µM and inactive = higher.

What was measured:
Experiment in all cases: growth of human tumour cells (NCI), 48 h
[1] = test system: A498
[2] = test system: COLO 205
[3] = test system: DLD-1
[4] = test system: HCT-116
[5] = test system: HCT-15
[6] = test system: HT-29
[7] = test system: KM12
[8] = test system: LOX IMVI
[9] = test system: MOLT-4
[10] = test system: NCI-H23
[11] = test system: NCI-H522
[12] = test system: OVCAR-3
[13] = test system: OVCAR-4
[14] = test system: SF-268
[15] = test system: SF-539
[16] = test system: SK-MEL-28
[17] = test system: SK-MEL-2
[18] = test system: UACC-257
[19] = test system: ACHN
[20] = test system: TK-10

Structure (SMILES)	GI50 [1]	GI50 [2]	GI50 [3]	GI50 [4]	GI50 [5]	GI50 [6]	GI50 [7]	GI50 [8]	GI50 [9]	GI50 [10]	GI50 [11]	GI50 [12]	GI50 [13]	GI50 [14]	GI50 [15]	GI50 [16]	GI50 [17]	GI50 [18]	GI50 [19]	GI50 [20]
Nc1cc(S(=O)(=O)O)cc2cc(S(=O)(=O)O)c(/N=N/c3ccc(-c4ccc(/N=N/c5c(S(=O)(=O)O)cc6cc(S(=O)(=O)O)cc(N)c6c5O)cc4)cc3)c(O)c12	> 100 µM (inactive)	> 100 µM (inactive)	> 100 µM (inactive)	> 100 µM (inactive)	> 100 µM	> 100 µM (inactive)	> 100 µM (inactive)	> 100 µM (inactive)	> 100 µM (inactive)	> 100 µM (inactive)	> 100 µM (inactive)	> 100 µM (inactive)	> 100 µM (inactive)	> 100 µM (inactive)	> 100 µM (inactive)	> 100 µM (inactive)	> 100 µM (inactive)	> 100 µM (inactive)		
CSCC(CO)NC(=O)/C=C/c1c(C)[nH]c(=O)[nH]c1=O (stereo not given)	> 875 µM (inactive)	68.5 µM (inactive)	512 µM (inactive)	507 µM (inactive)	485 µM	> 826 µM (inactive)	695 µM (inactive)	457 µM (inactive)	232 µM (inactive)	690 µM (inactive)	45.8 µM (inactive)	53.1 µM (inactive)	31.9 µM (inactive)	223 µM (inactive)	> 875 µM (inactive)	> 875 µM (inactive)	597 µM (inactive)	820 µM (inactive)		
Nc1n[nH]c(CCCCCCCc2nnc(N)[nH]2)n1	> 100 µM (inactive)		> 100 µM (inactive)	> 100 µM (inactive)	> 100 µM	> 100 µM (inactive)	> 100 µM (inactive)	> 100 µM (inactive)	> 100 µM (inactive)	> 100 µM (inactive)	> 100 µM (inactive)	> 100 µM (inactive)	> 100 µM (inactive)	> 100 µM (inactive)	> 100 µM (inactive)	> 100 µM (inactive)	> 100 µM (inactive)	> 100 µM (inactive)	> 100 µM (inactive)	> 100 µM (inactive)
